{"source": "patent US20240083853A1", "about": "“HSD17B13 INHIBITORS AND USES THEREOF” (FL2022-001, Inc., priority 2020, published 2024)"}
{"target": "T1, Recombinant human HSD17B13 enzyme (Homo sapiens, UniProt Q7Z5P4)", "T1 sequence (Q7Z5P4 20-300)": "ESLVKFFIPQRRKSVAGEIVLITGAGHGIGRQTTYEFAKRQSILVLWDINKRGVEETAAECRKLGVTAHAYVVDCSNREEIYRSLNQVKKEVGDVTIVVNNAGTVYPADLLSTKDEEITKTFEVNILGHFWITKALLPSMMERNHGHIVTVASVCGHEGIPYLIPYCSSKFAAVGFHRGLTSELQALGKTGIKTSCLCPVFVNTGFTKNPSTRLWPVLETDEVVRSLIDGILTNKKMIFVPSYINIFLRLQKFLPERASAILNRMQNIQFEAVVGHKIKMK", "assay": "HSD17b13 NAD(P)H-Glo biochemical assay", "conditions": "50 uM estradiol, 1 mM NAD+, NAD(P)H-Glo luminescence; read-out: HSD17β13 IC50", "in_short": "(§1)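 Recombinant human HSD17B13 in 20 mM Tris pH7.4 with 0.002% Tween-20 and 0.02% BSA was preincubated with inhibitor for 20 minutes at RT. The reaction ran 3 hours at 37° C with 50 uM estradiol and 1 mM NAD+ (final). NADH formed was detected by NAD(P)H-Glo luminescence after 1 hour at RT.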", "units": {"IC50": "nM"}}
{"smiles": "CS(=O)(=O)N1CCN(c2ccc(-n3cnc4cc(F)c(O)c(F)c43)cc2)CC1", "note": "[Compound 21.4, 5,7-Difluoro-1-(4-(4-(methylsulfonyl)piperazin-1-yl)phenyl)-1H-benzo[d]imidazol-6-ol]", "IC50": "100 to 1000"}
{"smiles": "CC1(C)CCN(c2ccc(-n3nnc4cc(F)c(O)c(F)c43)nn2)CC1", "note": "[Compound 26.23, 1-(6-(4,4-Dimethylpiperidin-1-yl)pyridazin-3-yl)-5,7-difluoro-1H-benzo[d][1,2,3]triazol-6-ol]", "IC50": "100 to 1000"}
{"smiles": "CS(=O)(=O)N1CC2(CN(c3ccc(-n4ncc5cc(F)c(O)c(F)c54)cc3)C2)C1", "note": "[Compound 20.23, 5,7-Difluoro-1-(4-(6-(methylsulfonyl)-2,6-diazaspiro[3.3]heptan-2-yl)phenyl)-1H-indazol-6-ol]", "IC50": "100 to 1000"}
{"smiles": "CC1CN(c2ccc(-n3ncc4cc(F)c(O)c(F)c43)cc2)CC(C)S1(=O)=O", "note": "(stereo not shown) [Compound 32, 4-(4-(5,7-Difluoro-6-hydroxy-1H-indazol-1-yl)phenyl)-2,6-dimethylthiomorpholine 1,1-dioxide]", "IC50": "100 to 1000"}
{"smiles": "CCS(=O)(=O)N1CCN(c2ccc(-n3ncc4cc(F)c(O)c(F)c43)cc2)CC1", "note": "[Compound 23.8, 1-(4-(4-(Ethylsulfonyl)piperazin-1-yl)phenyl)-5,7-difluoro-1H-indazol-6-ol]", "IC50": "100 to 1000"}
{"smiles": "Oc1cc(-c2ccc(-n3ncc4cc(F)c(O)c(F)c43)cc2)ccc1Cl", "note": "[Compound 13.19, 1-(4′-Chloro-3′-hydroxy-[1,1′-biphenyl]-4-yl)-5,7-difluoro-1H-indazol-6-ol]", "IC50": "< 100"}
{"smiles": "CS(=O)(=O)N1CCN(c2ccc(-n3ncc4cc(F)c(O)c(F)c43)cn2)CC1", "note": "[Compound 26.2, 5,7-Difluoro-1-(6-(4-(methylsulfonyl)piperazin-1-yl)pyridin-3-yl)-1H-indazol-6-ol]", "IC50": "100 to 1000"}
{"smiles": "CS(=O)(=O)C1CN(c2ccc(-n3cnc4cc(F)c(O)c(F)c43)cc2)C1", "note": "[Compound 20.15, 5,7-Difluoro-1-(4-(3-(methylsulfonyl)azetidin-1-yl)phenyl)-1H-benzo[d]imidazol-6-ol]", "IC50": "1000 to 30000"}
{"smiles": "Oc1cccc(-c2ccc(-n3nc(F)c4cc(F)c(O)cc43)cc2)c1", "note": "[Compound 5.3, 3,5-Difluoro-1-(3′-hydroxy-[1,1′-biphenyl]-4-yl)-1H-indazol-6-ol]", "IC50": "100 to 1000"}
{"smiles": "Oc1c(F)cc2cnn(-c3ccc(C4CCOCC4)cc3)c2c1F", "note": "[Compound 27.6, 5,7-Difluoro-1-(4-(tetrahydro-2H-pyran-4-yl)phenyl)-1H-indazol-6-ol]", "IC50": "< 100"}
{"smiles": "Oc1c(F)cc2cnn(-c3ccc(C4=CCOCC4)cc3)c2c1F", "note": "[Compound 27.3, 1-(4-(3,6-Dihydro-2H-pyran-4-yl)phenyl)-5,7-difluoro-1H-indazol-6-ol]", "IC50": "< 100"}
{"smiles": "CS(=O)(=O)N1C2CC1CN(c1ccc(-n3ncc4cc(F)c(O)c(F)c43)cc1)C2", "note": "[Compound 23.15, 5,7-Difluoro-1-(4-(6-(methylsulfonyl)-3,6-diazabicyclo[3.1.1]heptan-3-yl)phenyl)-1H-indazol-6-ol]", "IC50": "100 to 1000"}
{"smiles": "Oc1cccc(-c2ccc(-n3ncc4cc(Cl)c(O)cc43)cc2)c1", "note": "[Compound 2.6, 5-Chloro-1-(3′-hydroxy-[1,1′-biphenyl]-4-yl)-1H-indazol-6-ol]", "IC50": "1000 to 30000"}
{"smiles": "Oc1c(F)cc2cnn(-c3ccc(-c4cn[nH]c4)cc3)c2c1F", "note": "[Compound 14.1, 1-(4-(1H-Pyrazol-4-yl)phenyl)-5,7-difluoro-1H-indazol-6-ol]", "IC50": "100 to 1000"}
{"smiles": "CC1(C)CN(c2ccc(-n3ncc4cc(F)c(O)c(F)c43)cc2)C1", "note": "[Compound 23.13, 1-(4-(3,3-Dimethylazetidin-1-yl)phenyl)-5,7-difluoro-1H-indazol-6-ol]", "IC50": "< 100"}
{"smiles": "CC1(C)CCN(c2ccc(-n3nnc4c(Cl)c(F)c(O)cc43)cc2)CC1", "note": "[Compound 40.1, 4-Chloro-1-(4-(4,4-dimethylpiperidin-1-yl)phenyl)-5-fluoro-1H-benzo[d][1,2,3]triazol-6-ol]", "IC50": "< 100"}
{"smiles": "CS(=O)(=O)Nc1ccc(-c2ccc(-n3ncc4cc(F)c(O)cc43)cc2)cc1", "note": "[Compound 13.34, N-(4′-(5-Fluoro-6-hydroxy-1H-indazol-1-yl)-[1,1′-biphenyl]-4-yl)methanesulfonamide]", "IC50": "100 to 1000"}
{"smiles": "CS(=O)(=O)N1CCN(c2ccc(-n3ncc4cc(F)c(O)c(F)c43)cc2)CC1", "note": "[Compound 19, 5,7-Difluoro-1-(4-(4-(methylsulfonyl)piperazin-1-yl)phenyl)-1H-indazol-6-ol]", "IC50": "100 to 1000"}
{"smiles": "[O-][S+]1CCC2(CC1)CN(c1ccc(-n3ncc4cc(F)c(O)c(F)c43)cc1)C2", "note": "[Compound 32.1, 2-(4-(5,7-Difluoro-6-hydroxy-1H-indazol-1-yl)phenyl)-7-thia-2-azaspiro[3.5]nonane 7-oxide]", "IC50": "100 to 1000"}
{"smiles": "CC1(C)CCN(c2cnc(-n3ncc4cc(F)c(O)c(F)c43)nc2)CC1", "note": "[Compound 26.8, 1-(5-(4,4-Dimethylpiperidin-1-yl)pyrimidin-2-yl)-5,7-difluoro-1H-indazol-6-ol]", "IC50": "100 to 1000"}
{"smiles": "CCC1(CC)CN(c2ccc(-n3ncc4cc(F)c(O)c(F)c43)cc2)C1", "note": "[Compound 24, 1-(4-(3,3-Diethylazetidin-1-yl)phenyl)-5,7-difluoro-1H-indazol-6-ol]", "IC50": "< 100"}
{"smiles": "CC1CN(c2ccc(-n3ncc4cc(F)c(O)c(F)c43)cc2)CC(C)[S+]1[O-]", "note": "(stereo not shown) [Compound 32.3, 4-(4-(5,7-Difluoro-6-hydroxy-1H-indazol-1-yl)phenyl)-2,6-dimethylthiomorpholine 1-oxide]", "IC50": "100 to 1000"}
{"smiles": "COc1cccc(-c2ccc(-n3ncc4cc(F)c(O)cc43)cc2)c1", "note": "[Compound 13.20, 5-Fluoro-1-(3′-methoxy-[1,1′-biphenyl]-4-yl)-1H-indazol-6-ol]", "IC50": "100 to 1000"}
{"smiles": "CS(=O)(=O)N1CCC2(CC1)CN(c1ccc(-n3ncc4cc(F)c(O)c(F)c43)cc1)C2", "note": "[Compound 20.22, 5,7-Difluoro-1-(4-(7-(methylsulfonyl)-2,7-diazaspiro[3.5]nonan-2-yl)phenyl)-1H-indazol-6-ol]", "IC50": "100 to 1000"}
{"smiles": "Oc1c(F)cc2cnn(-c3ccc(N4CCC5(CC4)CC5)cc3)c2c1F", "note": "[Compound 23.23, 1-(4-(6-Azaspiro[2.5]octan-6-yl)phenyl)-5,7-difluoro-1H-indazol-6-ol]", "IC50": "< 100"}
{"smiles": "Oc1ccc(-c2ccc(-n3ncc4cc(F)c(O)cc43)nc2)cc1", "note": "[Compound 15.3, 5-Fluoro-1-(5-(4-hydroxyphenyl)pyridin-2-yl)-1H-indazol-6-ol]", "IC50": "100 to 1000"}
{"smiles": "NC(=O)c1cccc(-c2ccc(-n3ncc4cc(F)c(O)cc43)cc2)c1", "note": "[Compound 13.35, 4′-(5-Fluoro-6-hydroxy-1H-indazol-1-yl)-[1,1′-biphenyl]-3-carboxamide]", "IC50": "100 to 1000"}
{"smiles": "COc1ccc(-c2ccc(-n3ncc4cc(F)c(O)cc43)cc2)cc1", "note": "[Compound 13.21, 5-Fluoro-1-(4′-methoxy-[1,1′-biphenyl]-4-yl)-1H-indazol-6-ol]", "IC50": "100 to 1000"}
{"smiles": "CS(=O)(=O)c1ccc(-c2ccc(-n3ncc4cc(F)c(O)c(F)c43)cc2)cc1", "note": "[Compound 13.40, 5,7-Difluoro-1-(4′-(methylsulfonyl)-[1,1′-biphenyl]-4-yl)-1H-indazol-6-ol]", "IC50": "100 to 1000"}
{"smiles": "Oc1c(F)cc2cnn(-c3ccc(C4=CCCCC4)cc3)c2c1F", "note": "[Compound 27.1, 5,7-Difluoro-1-(2′,3′,4′,5′-tetrahydro-[1,1′-biphenyl]-4-yl)-1H-indazol-6-ol]", "IC50": "< 100"}
{"target": "T1, Recombinant human HSD17B13 enzyme", "assay": "HSD17b13 NAD(P)H-Glo biochemical assay", "conditions": "3 h; at 10 uM compound; read-out: HSD17β13 % at 10 uM", "in_short": "as §1", "units": {"inhibition at 10 µM": "%"}}
{"smiles": "CS(=O)(=O)N1CCN(c2ccc(-n3ncc4cnc(O)c(F)c43)cc2)CC1", "note": "[Compound 25.5, 7-Fluoro-1-(4-(4-(methylsulfonyl)piperazin-1-yl)phenyl)-1H-pyrazolo[4,3-c]pyridin-6-ol]", "inhibition at 10 µM": "< 20"}
